Entries after “also recorded” stand apart in the source; their conditions may differ.
What was measured:
[1] = tested on: donor RBCs; assay: Flow assay: adhesion of donor RBC to laminin-α5 in response to IL-8 and sera from sepsis patients
[2] = tested on: sickle cell patients; details: Ataga et al.; cited from earlier work
[3] = in vivo; cited from earlier work

Row | SMILES | Adhesion of donor RBCs to laminin-α5 in response to IL-8 incubation ([1]; RBCs pre-incubated with inhibitor 30 min, then IL-8 30 min at 37° C., FIG. 8B, 8C) | Adhesion of donor RBCs to laminin-α5 in response to sera of sepsis patients ([1]; RBCs pre-incubated with inhibitor 30 min, then sera of sepsis patients 30 min at 37° C., FIG. 8D) | AI-mediated degradation of RBC in vitro ([1]; in vitro, see Example 1) | Reduction of vaso-occlusive events [2] | Tolerability [3]
1 | Clc1ccccc1C(c1ccccc1)(c1ccccc1)n1cccn1 [TRAM34, 1-[(2-chlorophenyl)diphenylmethyl]-1H-pyrazole] | inhibited; also recorded: counteracted | inhibited |  |  | 
2 | NC(=O)C(c1ccccc1)(c1ccc(F)cc1)c1ccc(F)cc1 [Senicapoc, 4-fluoro-α-(4-fluorophenyl)-α-phenyl-benzeneacetamide] |  |  | counteracts AI-mediated degradation of RBC | did not result in reduction of vaso-occlusive events | well-tolerated

Source: patent US20240024335A1, “TREATMENT AND PREVENTION OF ANAEMIA OF INFLAMMATION” (Sanquin IP B.V., priority 2020, published 2024)
